According to BindingDB's records for doi:10.1016/j.bmc.2015.10.018 (Aristotle University of Thessaloniki, 2015):

Tests used:
Carbonic anhydrase 1 [1] = biological target: T1, Carbonic anhydrase 1 (Homo sapiens, UniProt P00915); assay: Inhibition of human recombinant carbonic anhydrase 1
Carbonic anhydrase 12 [2] = biological target: T2, Carbonic anhydrase 12 (Homo sapiens, UniProt O43570); assay: ChEBML_1523544; details: 25 °C
Description: (§1) Inhibition of human recombinant carbonic anhydrase 12 preincubated for 15 mins at room temperature/6 hrs at 4 deg C by stopped-flow CO2 hydration assay

Carbonic anhydrase 1 [3] = biological target: T1, Carbonic anhydrase 1; assay: ChEBML_1523540; details: 25 °C
Description: Inhibition of human recombinant carbonic anhydrase 1 preincubated for 15 mins at room temperature/6 hrs at 4 deg C by stopped-flow CO2 hydration assay

Carbonic anhydrase 2 [4] = biological target: T3, Carbonic anhydrase 2 (Homo sapiens, UniProt P00918); assay: ChEBML_1523541; details: 25 °C
Description: (§2) Inhibition of human recombinant carbonic anhydrase 2 preincubated for 15 mins at room temperature/6 hrs at 4 deg C by stopped-flow CO2 hydration assay

Carbonic anhydrase 2 [5] = biological target: T3, Carbonic anhydrase 2; assay: as §2; details: 25 °C
Carbonic anhydrase 12 [6] = biological target: T2, Carbonic anhydrase 12; assay: as §1; details: 25 °C

T2 sequence (O43570 whole entry): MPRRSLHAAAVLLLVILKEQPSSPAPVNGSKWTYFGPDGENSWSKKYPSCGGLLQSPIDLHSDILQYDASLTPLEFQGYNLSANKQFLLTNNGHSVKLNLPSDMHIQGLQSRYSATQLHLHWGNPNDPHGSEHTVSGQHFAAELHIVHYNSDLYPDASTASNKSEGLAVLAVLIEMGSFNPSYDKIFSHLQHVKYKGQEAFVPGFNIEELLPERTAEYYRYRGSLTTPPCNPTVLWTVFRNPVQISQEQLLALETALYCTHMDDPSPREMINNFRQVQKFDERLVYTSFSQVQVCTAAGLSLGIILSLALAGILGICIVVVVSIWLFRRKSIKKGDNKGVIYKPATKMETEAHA
T1 sequence (P00915 whole entry): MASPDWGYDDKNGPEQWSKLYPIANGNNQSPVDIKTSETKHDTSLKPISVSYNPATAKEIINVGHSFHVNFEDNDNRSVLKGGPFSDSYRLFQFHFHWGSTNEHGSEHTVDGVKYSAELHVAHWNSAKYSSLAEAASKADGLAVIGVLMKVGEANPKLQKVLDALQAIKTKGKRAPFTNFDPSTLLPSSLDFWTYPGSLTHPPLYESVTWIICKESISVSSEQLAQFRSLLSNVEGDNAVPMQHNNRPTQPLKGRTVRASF

A Ki (Carbonic anhydrase 1 [1]) greater than 10 µM, a Ki (Carbonic anhydrase 12 [2]) of 0.0521 µM and a Ki (Carbonic anhydrase 1 [3]) greater than 10 µM were found for O=c1cc(O)cc2oc(-c3ccc(O)c(O)c3)c(O[C@@H]3O[C@H](CO)[C@@H](O)[C@H](O)[C@H]3O)c(O)c1-2 [Quercetin 3-O-beta-D-glucoside] in this work. The Ki (Carbonic anhydrase 2 [4]) was 6.21 µM, the Ki (Carbonic anhydrase 2 [5]) was 6.21 µM and the Ki (Carbonic anhydrase 12 [6]) was 0.052 µM.
